Data: ChEMBL document CHEMBL4190319, “Piperlongumine B and analogs are promising and selective inhibitors for acetylcholinesterase” (Eur J Med Chem, 2017)

Experiments:
[1] = Solubility of the compound in DMSO; format: physicochemical
[2] = molecular target: T1, Acetylcholinesterase (Electrophorus electricus, UniProt O42275); test: Competitive inhibition of electric eel AChE assessed as inhibition constant for enzyme inhibitor complex preincubated for 20 mins followed by acetylthiocholine iodide substrate addition and measured for 30 mins at 1 min intervals by Ellman's method
T1 sequence (O42275 whole entry): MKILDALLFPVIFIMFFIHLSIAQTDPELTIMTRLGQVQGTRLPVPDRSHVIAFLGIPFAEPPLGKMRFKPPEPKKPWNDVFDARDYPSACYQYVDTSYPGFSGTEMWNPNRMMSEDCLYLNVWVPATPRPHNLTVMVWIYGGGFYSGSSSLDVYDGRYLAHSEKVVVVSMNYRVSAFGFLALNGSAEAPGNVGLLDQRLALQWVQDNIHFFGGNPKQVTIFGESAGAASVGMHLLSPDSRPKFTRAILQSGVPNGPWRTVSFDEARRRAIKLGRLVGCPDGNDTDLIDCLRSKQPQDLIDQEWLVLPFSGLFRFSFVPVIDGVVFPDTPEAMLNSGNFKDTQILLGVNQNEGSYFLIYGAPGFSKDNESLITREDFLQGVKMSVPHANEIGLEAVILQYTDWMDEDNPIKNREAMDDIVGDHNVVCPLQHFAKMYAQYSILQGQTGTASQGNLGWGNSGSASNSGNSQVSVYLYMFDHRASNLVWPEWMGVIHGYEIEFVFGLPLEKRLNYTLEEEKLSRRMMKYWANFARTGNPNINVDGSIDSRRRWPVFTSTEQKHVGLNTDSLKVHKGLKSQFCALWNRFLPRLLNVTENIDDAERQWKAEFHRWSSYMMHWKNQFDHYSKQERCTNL

[3] = test system: HT-29; test: Cytotoxicity against human HT-29 cells assessed as cell survival at 60 uM after 96 hrs by sulforhodamine B assay relative to control; format: functional; settings: HT-29, 96 h, read-out: Survival
[4] = test system: SW-1736; test: Cytotoxicity against human SW1736 cells assessed as cell survival at 60 uM after 96 hrs by sulforhodamine B assay relative to control; format: functional; settings: SW-1736, 96 h, read-out: Survival
[5] = test system: MCF7; test: Cytotoxicity against human MCF7 cells assessed as cell survival at 60 uM after 96 hrs by sulforhodamine B assay relative to control; format: functional; settings: MCF7, 96 h, read-out: Survival
[6] = test system: A253 cell line; test: Cytotoxicity against human A253 cells assessed as cell survival at 60 uM after 96 hrs by sulforhodamine B assay relative to control; format: functional; settings: A253, 96 h, read-out: Survival
[7] = Cytotoxicity against mouse NIH/3T3 cells assessed as cell survival at 60 uM after 96 hrs by sulforhodamine B assay relative to control; format: cell-based, NIH3T3; settings: read-out: Survival
[8] = test system: FaDu; test: Cytotoxicity against human FADU cells assessed as cell survival at 60 uM after 96 hrs by sulforhodamine B assay relative to control; format: functional; settings: read-out: Survival
[9] = molecular target: T1, Acetylcholinesterase; test: Competitive inhibition of electric eel AChE assessed as inhibition constant for enzyme-substrate-inhibitor complex preincubated for 20 mins followed by acetylthiocholine iodide substrate addition and measured for 30 mins at 1 min intervals by Ellman's method
[10] = test system: A253 cell line; test: Cytotoxicity against human A253 cells assessed as cell survival at 40 uM after 96 hrs by sulforhodamine B assay relative to control; format: functional; settings: A253, 96 h, read-out: Survival
[11] = test system: MCF7; test: Cytotoxicity against human MCF7 cells assessed as cell survival at 40 uM after 96 hrs by sulforhodamine B assay relative to control; format: functional; settings: MCF7, 96 h, read-out: Survival
[12] = Cytotoxicity against mouse NIH/3T3 cells assessed as cell survival at 40 uM after 96 hrs by sulforhodamine B assay relative to control; format: cell-based, NIH3T3; settings: read-out: Survival
[13] = test system: FaDu; test: Cytotoxicity against human FADU cells assessed as cell survival at 40 uM after 96 hrs by sulforhodamine B assay relative to control; format: functional; settings: read-out: Survival
[14] = test system: HT-29; test: Cytotoxicity against human HT-29 cells assessed as cell survival at 40 uM after 96 hrs by sulforhodamine B assay relative to control; format: functional; settings: HT-29, 96 h, read-out: Survival
[15] = test system: SW-1736; test: Cytotoxicity against human SW1736 cells assessed as cell survival at 40 uM after 96 hrs by sulforhodamine B assay relative to control; format: functional; settings: SW-1736, 96 h, read-out: Survival

Compound	solubility [1]	Ki [2] [µM]	viability at 60 µM [3] [%]	viability at 60 µM [4] [%]	viability at 60 µM [5] [%]	viability at 60 µM [6] [%]	viability at 96 h, 60 µM [7] [%]	viability at 60 µM [8] [%]	Ki [9] [µM]	viability at 40 µM [10] [%]	viability at 40 µM [11] [%]	viability at 96 h, 40 µM [12] [%]	viability at 40 µM [13] [%]	viability at 40 µM [14] [%]	viability at 40 µM [15] [%]
CCCCCCCCCCCCCCCCC/C=C/C(=O)N1CCCCCC1	Insoluble														
CCCCCCCCCCCCCCC/C=C/C(=O)N1CCC1	Insoluble														
CCCCCCCCCCCCCCC/C=C/C(=O)N1CCCCCC1		3.16	76	86	75	88	74	94	41.5						
CCCCCCCCCCCCC/C=C/C(=O)N1CCC1										69	62	92	96	71	88
CCCCCCCCCCCCC/C=C/C(=O)N1CCCC1										44	24	60	79	24	42
CCCCCCCCCCCCC/C=C/C(=O)N1CCCCCC1		3.41							81.9	46	27	69	77	22	61
CCCCCCCCCCC/C=C/C(=O)N1CCCCCC1		9.99	57	80	35	63	63	85	45.4						
CCCCCCCCCCC/C=C/C(=O)N1CCCCC1										67	51	74	97	68	63
CCCCCCCCCCC/C=C/C(=O)N1CCC1			84	89	59	77	80	95							
CCCCCCCCCCCCCCC/C=C/C(=O)N1CCCCCCC1		5.09	69	81	83	80	75	93	> 50						
CCCCCCCCCCC/C=C/C(=O)N1CCCCCCC1		6.83	52	76	40	57	70	84	23						
CCCCCCCCCCCCC/C=C/C(=O)N1CCCCCCC1		2.04							23.3	40	27	50	61	15	43
CCCCCCCCCCCCCCCCC/C=C/C(=O)N1CCC1	Insoluble														
CCCCCCCCCCCCCCCCC/C=C/C(=O)N1CCCCC1	Insoluble														
CCCCCCCCCCCCCCC/C=C/C(=O)N1CCCCC1	Insoluble														
CCCCCCCCCCCCCCC/C=C/C(=O)N1CCCC1	Insoluble														
CCCCCCCCCCCCC/C=C/C(=O)N1CCCCC1		7.45							> 50	57	40	80	90	47	77
CCCCCCCCCCCCCCCCC/C=C/C(=O)N1CCCC1	Insoluble														
CCCCCCCCCCCCCCCCC/C=C/C(=O)N1CCCCCCC1	Insoluble														
CCCCCCCCCCC/C=C/C(=O)N1CCCC1			86	99	69	86	78	96							
